How the values were obtained:
[1] = test system: locally advanced or metastatic non-small cell lung cancer (NSCLC); assay: OAK phase III clinical trial (NCT02008227): atezolizumab vs docetaxel, outcomes by bTMB score and PD-L1 IHC; assay type: in vivo, human; settings: OAK
Description: (§1) A blood-based assay was used to evaluate the association between clinical response to treatment with atezolizumab (MPDL3280A) and blood tumor mutational burden (bTMB) score in patients with non-small cell lung cancer (NSCLC) enrolled in two clinical trials, a phase II clinical trial, POPLAR (Clinical Trial ID No.: NCT01903993), and a phase III clinical trial, OAK (Clinical Trial ID No.: NCT02008227), in which atezolizumab was administered as a monotherapy.
(§2) Pre-treatment blood samples from patients with NSCLC who were enrolled in the POPLAR and/or the OAK studies, in which atezolizumab was administered as a monotherapy, were evaluated for bTMB score and/or maximum somatic allele frequency (MSAF).
The OAK (Clinical Trial ID No.: NCT02008227) patient population evaluated for bTMB score consisted of 583 patients. Patients were eligible for enrollment in the OAK study if they had locally advanced or metastatic (e.g., stage IIIB, stage IV, or recurrent) NSCLC; disease progression during or following treatment with a prior platinum-containing regimen for locally advanced, unresectable/inoperable, or metastatic NSCLC, or disease recurrence within 6 months of treatment with a platinum-based adjuvant/neoadjuvant regimen; measurable disease, as defined by RECIST v1.1; and an ECOG performance status of 0 or 1. Participants were randomized to receive either atezolizumab at a dose of 1200 mg intravenously every three weeks or docetaxel 75 mg per square meter (mg/m^2) intravenously every three weeks. Treatment with atezolizumab could be continued as long as participants were experiencing clinical benefit, i.e., in the absence of unacceptable toxicity or symptomatic deterioration attributed to disease progression.
(§3) Analysis of bTMB was performed retrospectively. Progression-free survival (PFS) was defined as the time between date of randomization and date of first documented disease progression as assessed by the investigator using RECIST v.1.1 or death from any cause, whichever occurred first. Overall survival (OS) was defined as the time between the date of randomization until death due to any cause. Treatment arms were compared for OS and PFS individually using a univariate Cox regression model without stratification in the biomarker evaluable-population (BEP) and their subgroups or using a stratified (by randomization stratification factors) Cox model in the ITT population. No multiplicity correction was applied to p-values or confidence intervals (CI). Kaplan-Meier methodology was used to estimate median OS and PFS and construct survival curves.
In the OAK ITT population (N=850), 797 samples were available for analysis. Of these samples, 13 were removed for sample contamination >1%; 42 were removed for median exon coverage <800×; and 100 were removed for low MSAF<1%.
The OAK BEP (N=642) included 59 patients with EGFR mutation or ALK rearrangement, and 583 without known alterations.
(§4) To identify somatic mutations and calculate a bTMB score, whole blood samples obtained from each patient (collected in EDTA or Streck tubes) were processed through a series of spins to isolate plasma, from which cell free DNA (cfDNA) was extracted for sequencing analysis. Specifically, at least 20 ng purified cfDNA was used for library construction. Next-generation sequencing libraries using fragment barcodes and hybrid capture were constructed to analyze and sequence a pre-determined set of 394 genes that covered approximately 1.125 Mb of the exome. Specifically, purified libraries were hybrid captured using a 394-gene bait set and then further purified, pooled and loaded on an ILLUMINA® HISEQ® 4000 sequencing system. Sequenced libraries were aligned and sorted. In order to accurately call variants at low allele frequencies and minimize artifacts from sequencing, PCR, or DNA damage-related errors, sequenced libraries were processed by a cfDNA computational pipeline that corrected errors via the use of fragment barcodes. […]

[2] = test system: locally advanced or metastatic non-small cell lung cancer (NSCLC); assay: POPLAR phase II clinical trial (NCT01903993): atezolizumab vs docetaxel, outcomes by bTMB score; assay type: in vivo, human; settings: bTMB≥16, per treatment arm
Description: as §1, §2
The POPLAR (Clinical Trial ID No.: NCT01903993) patient population evaluated for bTMB score consisted of 273 patients. Patients were eligible for enrollment in the POPLAR study if they had locally advanced or metastatic (e.g., stage IIIB, stage IV, or recurrent) non-small cell lung cancer (NSCLC); disease progression during or following treatment with a prior platinum-containing regimen for locally advanced, unresectable/inoperable, or metastatic NSCLC, or disease recurrence within 6 months of treatment with a platinum-based adjuvant/neoadjuvant regimen; measurable disease, as defined by RECIST v1.1; and an Eastern Cooperative Oncology Group (ECOG) performance status of 0 or 1. Participants were randomized to receive either atezolizumab at a dose of 1200 mg intravenously every three weeks or docetaxel 75 mg per meter square (mg/m^2) intravenously every three weeks. Treatment with atezolizumab could be continued as long as participants were experiencing clinical benefit, i.e., in the absence of unacceptable toxicity or symptomatic deterioration attributed to disease progression.
as §3
In the POPLAR ITT population (N=287), 273 samples were available for analysis. Of these, 6 were removed for sample contamination >1%; 9 were removed for median exon coverage <800×; and 47 were removed for low MSAF<1%.
The POPLAR BEP (N=211) includes 15 patients with EGFR mutation or ALK rearrangement, and 196 without known alterations.
as §4, with “sorted.” for “sorted. In order to accurately call variants at low allele frequencies and minimize artifacts from sequencing, PCR, or DNA damage-related errors, sequenced libraries were processed by a cfDNA computational pipeline that corrected errors via the use of fragment barcodes.”

## CC(=O)O[C@@]12CO[C@@H]1C[C@H](O)[C@@]1(C)C(=O)[C@H](O)C3=C(C)[C@@H](OC(=O)[C@H](O)[C@@H](NC(=O)OC(C)(C)C)c4ccccc4)C[C@@](O)([C@@H](OC(=O)c4ccccc4)[C@H]21)C3(C)C [docetaxel]
[1]; bTMB≥16, per treatment arm
  median OS: 6.8 months
[1]; bTMB≥16 patients, per treatment arm
  best overall response rate: 10%
[2]
  median OS: 7.4 months
  median PFS: 2.9 months
